# Results as given in patent US20110166206A1, “UBIQUILIN REGULATION OF PRESENILIN ENDOPROTEOLYSIS, AND SUPPRESSION OF POLYGLUTAMINE-INDUCED TOXICITY IN CELLS” (UNIVERSITY OF MARYLAND BIOTECHNOLOGY INSTITUTE, priority 2005, published 2011).
# Experiments:
# [1] = system: endogenous PS1 NTF; assay: UBQLN overexpression in wild-type HEK293 cells, endogenous PS1 NTF immunoblot; assay type: cell-based; conditions: normal HEK293 cells
# Protocol: (C) Endogenous PS fragment levels were analyzed in HEK293 cells that were transfected with increasing amounts of UBQLN1 or UBQLN2 expression plasmids. Equivalent amounts of protein lysates were separated by 10% SDS-PAGE and immunoblotted with anti-PS1 NTF antibody. The filter was then reprobed with anti-ubiquilin antibody to ensure overexpression of UBQLN and with an anti-actin antibody to ensure equal protein loading. Overexpression of UBQLN decreases PS1 NTF levels and the extent of reduction was quantified again by densitometric analysis. Graph is quantification of untransfected and […] UBQLN cDNA plasmid transfected lanes.
# Preparation of protein lysates, SDS-PAGE and immunoblotting of proteins were described previously. Primary antibodies used were rabbit anti-PS2 loop and rabbit anti-PS2 NH,-terminus, both raised to GST-PS2 fusion proteins; rabbit anti-ubiquilin [43] which reacts with UBQLN1 and UBQLN2 polypeptides; rat anti-PS1 NH2,-terminus (Chemicon International, Temecula, Calif.); rabbit anti-PS1 loop raised to GST-PS1 fusion proteins; goat anti-p27 and goat anti-actin (Santa Cruz Biotechnology, Santa Cruz, Calif.); mouse monoclonal anti-tubulin (Sigma-Aldrich, St. Louis, Mo.); rabbit anti-nicastrin (Abeam, Cambridge, Mass.), rabbit anti-Pen-2 (Zymed, San Francisco, Calif.); and rabbit anti-Aph-la (Covance, Berkeley, Calif.). […]
# [2] = system: PS2 NTF; assay: Cycloheximide time course of PS2 fragment production in PS2 inducible cells with or without UBQLN1 transfection; assay type: cell-based, human
# Protocol: (A) Time course experiment using ponA-induced PS2 cell line cultures transfected with or without UBQLN1 expression plasmids were treated with […] cycloheximide for 0-6 hours. Equal amounts of protein lysate were separated by 8.5% SDS-PAGE and subsequently immunoblotted with anti-UBQLN antibody. Transfected cells reveal a 4-fold increase in UBQLN1 levels. Next, the protein lysates were immunoblotted using anti-PS2 NH,-terminal antibody to detect FL and NTF PS2 levels, as indicated. Note both FL PS2 turnover and NTF production levels in transfected versus untransfected cell lysates.
# (B) Same experiment as (A) except FL PS expression was not induced using PonA.
# (C) Graphs showing relative levels of PS2 polypeptides in PS2 inducible cell lysates after densitometric analysis of the immunoreactive bands shown in panels A and B. The levels were calculated by normalization of the signals relative to that in Lane 1. The Microsoft Excel program was used to produce a best-fit line for each graph. […] However, this is completely opposite of NTF levels. UBQLN not only decreases NTF levels at every time-point in the experiment, but it also slows the rate of NTF production, as determined by measuring the slope of each line.
# HeLa and HEK293 cells were grown in DMEM supplemented with 10% FBS. PS1 and S2 inducible cell lines were generated by transfection of the pERV-expressing HEK293 cell line (Stratgene, IaIolla, Calif.) with FL human PS2 cDNA under the control of ponasteroneA (PonA)-inducible cassette in plasmid pEGSH (Stratagene). Stable integration of the pEGSH plasmid was achieved by selection for hygromycin resistance. PS expression was induced by adding PonA (final cont. 10 pM) to the medium. For proteasome inhibition studies, cultures were treated with 40 uM MG132 (Calbiochem, San Diego, Calif.) for time periods as indicated. […]
# To this end, protein synthesis was inhibited using cyclohexamide (CHX) and PS fragment production was monitored over a six-hour time period in UBQLN transfected and untransfected lysates that were either induced or uninduced for PS expression. […]
# [3] = system: mouse cortical neurons; assay: Ubiquilin-1 overexpression in mouse primary neuronal cultures transfected with GFP-HttPolyQ74; assay type: cell-based
# Protocol: FIG. 10. […] Mouse cortical neurons (14 days in vitro) were transiently transfected with pEGFP (3 μg each well, a), or pEGFP-HttExon-1polyQ(74) alone (3 μg each well, b), or cotransfected with both pEGFP-HttExon-1polyQ(74) and ubiquilin-1 cDNA with the ratio indicated (3 μg of pEGFP-HttExon-1polyQ(74) plus 1.5 μg or 3 μg of ubiquilin-1 cDNA; c, d).
# B. Overexpression of ubiquilin-1 reduces formation of GFP-HttPolyQ(74) inclusions in cultured mouse neurons. […] Overexpression of ubiquilin-1 reduces GFP-HttPolyQ(74)-induced cell death in cultured mouse neurons. 30 hours following transfection, the cultures were stained with both Hoechst 33342 and propidium iodide (PI) and then subjected for fluorescent microscopy analysis. PI positively stained cells were treated as dead cells and only the green (GFP-positive) cells were included in the cell death analysis. Results are mean±SD.
# Next it was investigated whether the modulation of polyglutamine aggregation and toxicity by ubiquilin-1 overexpression is manifested in neuronal cells, which might be more relevant in terms of controlling neurodegeneration in HD and related disorders. […] The insolubility of the Htt protein was not measured in these cells due difficulties in preparing reliable soluble and insoluble material from neurons and because of a limitation in the number for cells required for the assay.
substance,measurement,setting,value
"UBQLN1: PS-interacting protein ubiquilin-1, overexpressed in cells from a cDNA expression plasmid",reduction of endogenous PS1 NTF levels,[1],approximately 1.7 fold
same,rate of PS2 NTF production,[2]; PS induced and uninduced cells treated with CHX,slows the rate of PS2 NTF production
same,UBQLN1 overexpression level in transfected lysates,"[2]; transfected vs untransfected, UBQLN immunoblot",4 fold
same,inclusion formation,[3],decreased inclusion formation
same,neuronal cell death,[3],decreased GFP-HttPolyQ74-induced neuronal cell death
